Measured values from US9115122B2, “Non-ATP dependent inhibitors of extracellular signal-regulated kinase (ERK)” (UNIVERSITY OF MARYLAND, BALTIMORE, priority 2012, dated 2015).
Blank lines part the entries; values can stand above or below the compound they belong to.

Experiments:
ERK2 wild type (WT) = ERK2 wild type (WT) (Rattus norvegicus (Rat), UniProt P63086); test: Fluorescence quenching (FQ) binding affinity; details: 1 nM to 20 μM test compound
ERK2 T157A = ERK2 T157A (Rattus norvegicus (Rat), UniProt P63086, T157A); test: Fluorescence quenching (FQ) binding affinity; details: read-out: KD T157A (Site1)
ERK2 D319N = ERK2 D319N (Rattus norvegicus (Rat), UniProt P63086, D319N); test: Fluorescence quenching (FQ) binding affinity; details: read-out: KD D319N (Site1)
ERK2 T157A/D319N = ERK2 T157A/D319N (Rattus norvegicus (Rat), UniProt P63086, D319N/T157A); test: Fluorescence quenching (FQ) binding affinity; details: read-out: KD T157A/D319N (Site1)
A375 melanoma cells [1] = test: Cell proliferation WST-1 assay, single dose (Example 4); format: cell-based; details: 100 μM, 48 hours
Procedure, shortened: (§1)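 Tetrazolium (WST-1) read-out of proliferation, values relative to DMSO-only wells; cells treated for 48 h after 16-20 h recovery.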

HL-60 leukemic cells = test: as above; format: cell-based; details: 100 μM, 48 hours
Procedure, shortened: as §1

[2] = tested on: HeLa cervical carcinoma cells; test: as above; format: cell-based; details: 100 μM, 48 hours
Procedure, shortened: as §1

[3] = tested on: Jurkat T-cell leukemia cells; test: as above; format: cell-based; details: 100 μM, 48 hours
Procedure, shortened: as §1

RPMI-7951 melanoma cells = test: as above; format: cell-based; details: 100 μM, 48 hours
Procedure, shortened: as §1

SK-MEL-28 melanoma cells [4] = test: as above; format: cell-based; details: 100 μM, 48 hours
Procedure, shortened: as §1

A375 melanoma cells [5] = test: Dose-response growth inhibition (GI50) of select compounds; format: cell-based; details: Homo sapiens, A-375, 48 h, two days
Protocol: (§2) An example of the dose response curve for compound 30h and the BRaf inhibitor PLX4032 for inhibiting the growth of melanoma cell lines is shown in FIG. 14. […] A summary of GI50 values for select compounds along with comparisons to know ERK pathway inhibitors in various cell lines is shown in Table 13. […] First, thiazolidinedione compounds have been identified to be selective inhibitors of cancer cell lines containing activated ERK signaling. Second, changes in the 4-ethoxyphenyl component of the parent compound 76 improve selectivity and potency for inhibiting melanoma cell growth. Third, compound 30h is a potent inhibitor of melanoma cell lines that have become resistant to the clinically relevant BRaf and MEK inhibitors. […] Lastly, 30h is as potent as the ATP-competitive pyrazolopyridazinamine ERK inhibitor (FR180204) in preventing melanoma cell proliferation and provides an alternative non-ATP-dependent approach to target cancer cells that are dependent on active ERK signaling.
(§3) Melanoma cells (A375, SK-MEL-28, and RPMI7951) were seeded at a density of 5,000 per well in 96-well plate. After overnight incubation, cells were treated with varying doses of PLX4032 (A) or 31h (B) for two days. Cell viability was determined by the addition of Cell Titer-Blue Reagent (20 μL/well) followed by 2 hours of incubation at 37° C. after which fluorescence was recorded (555/585 nm). Cell viability was expressed as percentage of vehicle control and data represent the average of three individual experiments.

RPMI7951 melanoma cells = test: as above; format: cell-based; details: Homo sapiens, RPMI-7951, 48 h, two days
Protocol: as §2, §3

SK-MEL-28 melanoma cells [6] = test: as above; format: cell-based; details: Homo sapiens, SK-MEL-28, 48 h, two days
Protocol: as §2, §3

HeLa cells = test: as above; format: cell-based; details: Homo sapiens, HeLa
Jurkat cells = test: as above; format: cell-based; details: Homo sapiens, Jurkat
[7] = tested on: activator protein-1 (AP-1) promoter; test: AP-1 promoter luciferase assay, HeLa cells (Example 4); format: cell-based; details: Homo sapiens, EGF 25 ng/mL, read-out: estimated IC50 AP-1 promoter activity
Protocol: (§4) HeLa cells were seeded in 24-well plates (4×10^4 cells/well) and incubated 18 hours prior to achieve ˜60-70% confluent. Cells were transfected with activator protein-1 (pAP1(PMA)-TA-Luc; Clontech) or the serum response element (pGL4.33-SRE; Promega) luciferase reporter plasmids (250 ng/well) using Lipofectamine™ (Invitrogen). After 16 hours, cells were treated with increasing amount of compounds as indicated for 20 minutes, followed by stimulation with EGF (25 ng/mL) for 4.5 hr. The luciferase activity in the cell extracts was determined with a Dual Luciferase Assay System (Promega) according to the manufacturer's instructions. Luciferase activities were monitored with a Lumat LB 9507 luminometer (Berthold Technology) and data were normalized to the amount of protein in each sample.

[8] = tested on: serum response element (SRE); test: SRE promoter luciferase assay, HeLa cells (Example 4); format: cell-based; details: Homo sapiens, EGF 25 ng/mL, read-out: estimated IC50 SRE promoter activity
Protocol: as §4

[9] = tested on: A549 lung carcinoma cells; test: Colony formation assay; format: cell-based; details: Homo sapiens, read-out: IC50 growth inhibition, colony formation, A549
Protocol: (§5) We have successfully used computer-aided drug design (CADD) to search for low-molecular-weight docking domain inhibitors of ERK. One of the compounds, identified as 76, binds ERK2 with a Kd value of 5 μM and blocks phosphorylation of the downstream ERK targets RSK-1 and Elk-1. Moreover, 76 inhibited growth of HeLa cervical carcinoma and A549 lung carcinoma cells as assessed by colony formation assay in a dose dependent manner with IC50 values of ˜20 μM.

[10] = tested on: HeLa cervical carcinoma cells; test: Colony formation assay; format: cell-based; details: Homo sapiens, read-out: IC50 growth inhibition, colony formation, HeLa
Protocol: as §5

ERK2 = ERK2 (Rattus norvegicus (Rat), UniProt P63086); test: Binding of DRS compound to ERK2 (FIG. 10)
A375 melanoma cells [11] = test: Proliferation of A375 melanoma cells (Example 3); format: cell-based
Description: We examined the effects of these compounds on proliferation of A375 melanoma cells with BRaf mutations that require ERK activation for survival.
Moreover, 76.3 and TMZ also appeared to delay tumor growth in mice harboring A375 tumors indicative of prolonged survival (FIG. 13B).

Sequence of ERK2 T157A/D319N (P63086 whole entry T157A/D319N): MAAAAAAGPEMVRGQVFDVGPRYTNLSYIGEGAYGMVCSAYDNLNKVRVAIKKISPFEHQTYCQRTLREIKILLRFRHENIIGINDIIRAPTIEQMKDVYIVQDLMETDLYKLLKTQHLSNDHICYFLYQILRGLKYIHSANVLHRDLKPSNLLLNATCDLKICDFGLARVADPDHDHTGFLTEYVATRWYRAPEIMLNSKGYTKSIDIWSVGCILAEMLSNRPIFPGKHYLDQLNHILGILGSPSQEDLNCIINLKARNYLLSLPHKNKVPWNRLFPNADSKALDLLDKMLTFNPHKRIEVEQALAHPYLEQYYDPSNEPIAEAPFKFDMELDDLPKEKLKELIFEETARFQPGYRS
Sequence of ERK2 T157A (P63086 whole entry T157A): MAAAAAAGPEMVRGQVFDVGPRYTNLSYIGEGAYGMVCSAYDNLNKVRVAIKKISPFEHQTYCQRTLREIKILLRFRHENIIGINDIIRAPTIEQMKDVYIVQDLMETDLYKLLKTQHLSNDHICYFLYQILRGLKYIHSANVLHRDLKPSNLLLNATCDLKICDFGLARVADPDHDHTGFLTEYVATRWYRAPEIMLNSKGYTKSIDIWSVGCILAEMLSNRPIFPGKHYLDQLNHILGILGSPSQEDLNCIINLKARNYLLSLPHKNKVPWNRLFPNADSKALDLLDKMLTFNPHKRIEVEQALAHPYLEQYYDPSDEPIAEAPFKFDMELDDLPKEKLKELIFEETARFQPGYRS
Sequence of ERK2 (P63086 whole entry): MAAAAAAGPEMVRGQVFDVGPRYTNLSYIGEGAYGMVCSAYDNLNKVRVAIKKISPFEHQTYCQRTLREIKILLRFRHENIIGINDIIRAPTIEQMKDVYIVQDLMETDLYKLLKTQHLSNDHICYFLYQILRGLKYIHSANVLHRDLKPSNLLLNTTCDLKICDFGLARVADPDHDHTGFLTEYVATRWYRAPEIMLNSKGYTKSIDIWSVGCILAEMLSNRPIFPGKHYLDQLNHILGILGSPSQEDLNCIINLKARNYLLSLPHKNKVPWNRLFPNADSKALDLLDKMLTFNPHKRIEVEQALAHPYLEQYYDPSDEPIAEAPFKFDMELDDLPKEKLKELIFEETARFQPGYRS
Sequence of ERK2 wild type (WT) (P63086 whole entry): as above
Sequence of ERK2 D319N (P63086 whole entry D319N): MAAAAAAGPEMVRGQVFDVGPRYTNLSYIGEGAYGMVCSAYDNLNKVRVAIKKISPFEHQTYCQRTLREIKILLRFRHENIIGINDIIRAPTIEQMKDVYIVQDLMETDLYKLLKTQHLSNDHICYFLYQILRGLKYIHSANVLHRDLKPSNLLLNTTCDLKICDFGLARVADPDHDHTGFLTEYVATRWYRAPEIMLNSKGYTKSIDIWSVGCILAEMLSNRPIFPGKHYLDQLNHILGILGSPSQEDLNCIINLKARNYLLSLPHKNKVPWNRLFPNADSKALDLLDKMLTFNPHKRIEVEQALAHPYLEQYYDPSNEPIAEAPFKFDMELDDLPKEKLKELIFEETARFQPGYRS

- Kd (ERK2 wild type (WT)): 5 µM
- Kd (ERK2 T157A): 6.1 ± 0.6 µM
- Kd (ERK2 D319N): 7 ± 1 µM
- Kd (ERK2 T157A/D319N): 6.4 ± 0.3 µM
- GI50 (A375 melanoma cells [5]): 29 µM
- GI50 (RPMI7951 melanoma cells): 46 µM
- GI50 (SK-MEL-28 melanoma cells [6]): 34 µM
- GI50 (HeLa cells): > 100 µM
- GI50 (Jurkat cells): > 100 µM
- IC50 [7]: ≤ 5 µM
- IC50 [8]: ≤ 5 µM
- IC50 [9]: ~20 µM
- IC50 [10]: ~20 µM
Compound: CCOc1ccc(/C=C2\SC(=O)N(CCN)C2=O)cc1 [Compound 76, (Z)-3-(2-aminoethyl)-5-(4-ethoxybenzylidene)thiazolidine-2,4-dione]
- Cell Viability (% of Vehicle) A375 (A375 melanoma cells [1]): 2.1 ± 2 % of Vehicle
- Cell Viability (% of Vehicle) HL-60 (HL-60 leukemic cells): 4.4 ± 1 % of Vehicle
- Cell Viability (% of Vehicle) HeLa [2]: 53 ± 3 % of Vehicle
- Cell Viability (% of Vehicle) Jurkat [3]: 59 ± 5 % of Vehicle
- Cell Viability (% of Vehicle) RPMI-7951 (RPMI-7951 melanoma cells): 0.3 ± 0.02 % of Vehicle
- Cell Viability (% of Vehicle) SK-MEL-28 (SK-MEL-28 melanoma cells [4]): 11 ± 7 % of Vehicle

- affinity (site 1 on ERK2) (ERK2): high nM affinity
Compound: CCOc1ccc(/C=C2\SC(=O)N(CCNc3nc(Cl)nc(Cl)n3)C2=O)cc1 [SF-2-054]
- effect on A375 cell proliferation (A375 melanoma cells [11]): selective inhibition of A375 cells
